Here are results for ten compounds from ChEMBL document CHEMBL1909294, “Translating clinical findings into knowledge in drug safety evaluation--drug induced liver injury prediction system (DILIps)” (PLoS Comput Biol, 2011).

For series [1], the system named is Hepatotoxicity.
Series [2] has as its system Hepatotoxicity. This is another data set of the same source.
The test system of series [3] is Hepatotoxicity. The source holds these as a separate data set.
In series [4] the test system is Hepatotoxicity. This is another data set of the same source.
Series [5] deals with Hepatotoxicity. This is another data set of the same source.
The test system of series [6] is Hepatotoxicity. This is another data set of the same source.
The test system of series [7] is Hepatotoxicity. This is another data set of the same source.
The test system of series [8] is Hepatotoxicity. The source holds these as a separate data set.
The test system of series [9] is Hepatotoxicity. This is another data set of the same source.
The test system of series [10] is Hepatotoxicity. This is another data set of the same source.
The test system of series [11] is Hepatotoxicity. This is another data set of the same source.
For series [12], the system named is Hepatotoxicity. The source holds these as a separate data set.
The test system of series [13] is Hepatotoxicity. This is another data set of the same source.
Series [14] has as its system Hepatotoxicity. This is another data set of the same source.
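Throughout, for HepSE Combined Scores: combined hepatic side effect score as listed in the training data of the Drug Induced Liver Injury Prediction System (DILIps).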
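Throughout, for HepSE bilirubinemia: bilirubinemia hepatic side effect score drawn from the DILIps training data, a prediction system for drug-induced liver injury; call rule not given here.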
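Throughout, for HepSE cholecystitis: Cholecystitis-related hepatic side effect score drawn from the DILIps (drug-induced liver injury prediction) training data set; call rule not given here.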
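Throughout, for HepSE cholelithiasis: hepatic side effect score for cholelithiasis, drawn from the DILIps training data for predicting drug-induced liver injury; call rule not given here.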
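Throughout, for HepSE cirrhosis: cirrhosis hepatic side effect score taken from the DILIps (drug-induced liver injury prediction) training set; call rule not given here.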
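Throughout, for HepSE elevated liver function tests: hepatic side effect score for raised liver function tests, as recorded in the DILIps training set used for predicting drug-induced liver injury.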
Throughout, for HepSE hepatic failure: call rule not given here.
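Throughout, for HepSE hepatic necrosis: score of hepatic side effects for hepatic necrosis, drawn from the training data of DILIps, a prediction system for drug-induced liver injury; call rule not given here.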
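Throughout, for HepSE hepatitis: Hepatitis-related hepatic side effect score taken from the training data of DILIps, a prediction system for drug-induced liver injury; call rule not given here.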
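Throughout, for HepSE hepatomegaly: hepatic side effect score for hepatomegaly, taken from the training set of the DILIps drug-induced liver injury prediction system; call rule not given here.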
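Throughout, for HepSE jaundice: Jaundice-related hepatic side-effect score drawn from the training data of the DILIps (drug-induced liver injury prediction system); call rule not given here.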
Throughout, for HepSE liver disease: call rule not given here.
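Throughout, for HepSE liver fatty: hepatic side effect score for fatty liver, taken from the DILIps training set for predicting drug-induced liver injury; call rule not given here.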
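Throughout, for HepSE liver function tests abnormal: hepatic side effect score taken from the DILIps (drug-induced liver injury prediction system) training data, here covering abnormal liver function test findings.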

As to `O=c1[nH]c2ccccc2n1C1CCN(CCCC(c2ccc(F)cc2)c2ccc(F)cc2)CC1` [PIMOZIDE], in the series with Hepatotoxicity [1], the HepSE_hepatic necrosis turned out to be 0. In addition, the HepSE_cholelithiasis in the series on Hepatotoxicity [2] is on record as 0. For the same compound, the HepSE_cirrhosis in the series on Hepatotoxicity [3] was determined as 0. The compound further returned a HepSE_liver fatty with Hepatotoxicity [4] of 0. Besides, the “HepSE_elevated liver function tests” value in the series with Hepatotoxicity [5] was found to be 0. Moreover, the “HepSE_liver function tests abnormal” value in the series with Hepatotoxicity [6] is recorded as 0. In addition, the HepSE_hepatic failure in the series on Hepatotoxicity [7] is listed as 0. For the same compound, the HepSE_jaundice in the series on Hepatotoxicity [8] is 0. For the same compound, the “HepSE_Combined Scores” value in the series with Hepatotoxicity [9] was found to be 0. Besides, in the series with Hepatotoxicity [10], the HepSE_bilirubinemia worked out at 0. The HepSE_hepatitis with Hepatotoxicity [11] was 0. Also, the HepSE_cholecystitis in the series on Hepatotoxicity [12] stood at 0. This compound had a HepSE_hepatomegaly in the series on Hepatotoxicity [13] of 0. The compound further showed a HepSE_liver disease in the series with Hepatotoxicity [14] of 0.

`CC[C@H](C)C(=O)O[C@H]1C[C@H](O)C=C2C=C[C@H](C)[C@H](CC[C@@H](O)C[C@@H](O)CC(=O)O)[C@H]21` [PRAVASTATIN] gave a HepSE_hepatic necrosis with Hepatotoxicity [1] of 1. For the same compound, the HepSE_cholelithiasis in the series with Hepatotoxicity [2] was determined as 0. The compound also had a HepSE_cirrhosis with Hepatotoxicity [3] of 1. In the series with Hepatotoxicity [4], this compound returned a HepSE_liver fatty of 0. In the series on Hepatotoxicity [5], the “HepSE_elevated liver function tests” value amounted to 0. Besides, the “HepSE_liver function tests abnormal” value in the series with Hepatotoxicity [6] amounted to 0. This compound displayed a HepSE_hepatic failure in the series on Hepatotoxicity [7] of 0. In the series with Hepatotoxicity [8], this compound displayed a HepSE_jaundice of 1. The “HepSE_Combined Scores” value in the series with Hepatotoxicity [9] was determined as 4. The compound further came in with a HepSE_bilirubinemia with Hepatotoxicity [10] of 0. This compound also had a HepSE_hepatitis in the series with Hepatotoxicity [11] of 1. This compound had a HepSE_cholecystitis in the series on Hepatotoxicity [12] of 0. Besides, the HepSE_hepatomegaly in the series on Hepatotoxicity [13] is given as 0. The compound further displayed a HepSE_liver disease in the series on Hepatotoxicity [14] of 0.

`N[C@@H]1CON=C1O` [CYCLOSERINE] registered a HepSE_hepatic necrosis in the series with Hepatotoxicity [1] of 0. In the series with Hepatotoxicity [2], this compound came in with a HepSE_cholelithiasis of 0. The compound also returned a HepSE_cirrhosis in the series with Hepatotoxicity [3] of 0. In the series on Hepatotoxicity [4], this compound showed a HepSE_liver fatty of 0. Moreover, the “HepSE_elevated liver function tests” value in the series on Hepatotoxicity [5] turned out to be 0. For the same compound, the “HepSE_liver function tests abnormal” value with Hepatotoxicity [6] turned out to be 0. The compound further yielded a HepSE_hepatic failure in the series on Hepatotoxicity [7] of 0. Moreover, the HepSE_jaundice in the series with Hepatotoxicity [8] is recorded as 0. Besides, in the series on Hepatotoxicity [9], the “HepSE_Combined Scores” value worked out at 1. In the series with Hepatotoxicity [10], this compound gave a HepSE_bilirubinemia of 0. This compound showed a HepSE_hepatitis with Hepatotoxicity [11] of 0. Moreover, the HepSE_cholecystitis with Hepatotoxicity [12] is given as 0. In the series on Hepatotoxicity [13], this compound had a HepSE_hepatomegaly of 0. Also, in the series on Hepatotoxicity [14], the HepSE_liver disease amounted to 1.

As to SEVELAMER, the HepSE_hepatic necrosis in the series on Hepatotoxicity [1] amounted to 0. The same compound had a HepSE_cholelithiasis in the series on Hepatotoxicity [2] of 0. In the series on Hepatotoxicity [3], this compound had a HepSE_cirrhosis of 0. This compound also yielded a HepSE_liver fatty with Hepatotoxicity [4] of 0. Also, the “HepSE_elevated liver function tests” value in the series on Hepatotoxicity [5] was 0. The “HepSE_liver function tests abnormal” value in the series with Hepatotoxicity [6] came to 0. Moreover, the HepSE_hepatic failure with Hepatotoxicity [7] is 0. This compound also came in with a HepSE_jaundice in the series with Hepatotoxicity [8] of 0. Besides, in the series with Hepatotoxicity [9], the “HepSE_Combined Scores” value came to 0. The HepSE_bilirubinemia in the series with Hepatotoxicity [10] turned out to be 0. The HepSE_hepatitis in the series with Hepatotoxicity [11] is recorded as 0. For the same compound, the HepSE_cholecystitis with Hepatotoxicity [12] is recorded as 0. The HepSE_hepatomegaly in the series with Hepatotoxicity [13] is 0. Besides, in the series on Hepatotoxicity [14], the HepSE_liver disease is listed as 0.

In the series with Hepatotoxicity [1], `N=C(N)NCCC[C@H](N)C(=O)O` [ARGININE] came in with a HepSE_hepatic necrosis of 0. In addition, in the series with Hepatotoxicity [2], the HepSE_cholelithiasis was 0. In the series on Hepatotoxicity [3], this compound returned a HepSE_cirrhosis of 0. In the series on Hepatotoxicity [4], this compound came in with a HepSE_liver fatty of 0. In addition, the “HepSE_elevated liver function tests” value with Hepatotoxicity [5] came to 0. The “HepSE_liver function tests abnormal” value in the series with Hepatotoxicity [6] was found to be 0. In the series on Hepatotoxicity [7], this compound returned a HepSE_hepatic failure of 0. The compound further returned a HepSE_jaundice in the series with Hepatotoxicity [8] of 0. Further, in the series on Hepatotoxicity [9], the “HepSE_Combined Scores” value stood at 0. This compound also came in with a HepSE_bilirubinemia in the series on Hepatotoxicity [10] of 0. Moreover, the HepSE_hepatitis in the series with Hepatotoxicity [11] was 0. In the series with Hepatotoxicity [12], the HepSE_cholecystitis worked out at 0. The compound further had a HepSE_hepatomegaly in the series with Hepatotoxicity [13] of 0. In the series on Hepatotoxicity [14], this compound returned a HepSE_liver disease of 0.

On to `O=c1[nH]cc(F)c(=O)[nH]1` [FLUOROURACIL], for which the HepSE_hepatic necrosis in the series on Hepatotoxicity [1] is recorded as 0. Moreover, in the series on Hepatotoxicity [2], the HepSE_cholelithiasis came out at 0. This compound came in with a HepSE_cirrhosis with Hepatotoxicity [3] of 0. In the series on Hepatotoxicity [4], this compound yielded a HepSE_liver fatty of 0. In the series with Hepatotoxicity [5], the “HepSE_elevated liver function tests” value came out at 0. The “HepSE_liver function tests abnormal” value with Hepatotoxicity [6] is listed as 0. Further, the HepSE_hepatic failure in the series with Hepatotoxicity [7] was 0. In addition, in the series on Hepatotoxicity [8], the HepSE_jaundice was found to be 0. Also, in the series with Hepatotoxicity [9], the “HepSE_Combined Scores” value came to 0. Also, in the series with Hepatotoxicity [10], the HepSE_bilirubinemia was found to be 0. The compound also had a HepSE_hepatitis in the series on Hepatotoxicity [11] of 0. Also, in the series with Hepatotoxicity [12], the HepSE_cholecystitis was determined as 0. The compound further came in with a HepSE_hepatomegaly in the series on Hepatotoxicity [13] of 0. In the series on Hepatotoxicity [14], this compound had a HepSE_liver disease of 0.

`Cc1cccc(C)c1OCC(C)N` (stereo not given) [MEXILETINE] yielded a HepSE_hepatic necrosis with Hepatotoxicity [1] (Liver) of 1. For the same compound, the HepSE_cholelithiasis with Hepatotoxicity [2] (Liver) was found to be 0. The compound further registered a HepSE_cirrhosis in the series with Hepatotoxicity [3] (Liver) of 0. Besides, in the series on Hepatotoxicity [4] (Liver), the HepSE_liver fatty was 0. For the same compound, the “HepSE_elevated liver function tests” value with Hepatotoxicity [5] (Liver) is on record as 0. Also, the “HepSE_liver function tests abnormal” value in the series on Hepatotoxicity [6] (Liver) is given as 1. In addition, in the series on Hepatotoxicity [7] (Liver), the HepSE_hepatic failure came to 0. The HepSE_jaundice in the series with Hepatotoxicity [8] (Liver) was found to be 0. The “HepSE_Combined Scores” value in the series on Hepatotoxicity [9] (Liver) was 3. This compound also returned a HepSE_bilirubinemia with Hepatotoxicity [10] (Liver) of 0. Besides, in the series on Hepatotoxicity [11] (Liver), the HepSE_hepatitis is listed as 1. This compound displayed a HepSE_cholecystitis in the series with Hepatotoxicity [12] (Liver) of 0. The compound also showed a HepSE_hepatomegaly in the series with Hepatotoxicity [13] (Liver) of 0. In the series with Hepatotoxicity [14] (Liver), the HepSE_liver disease worked out at 0.

`CN1CCN(CCCN2c3ccccc3Sc3ccc(Cl)cc32)CC1` [PROCHLORPERAZINE]: the HepSE_hepatic necrosis in the series on Hepatotoxicity [1] was found to be 0. This compound also registered a HepSE_cholelithiasis with Hepatotoxicity [2] of 0. Moreover, in the series with Hepatotoxicity [3], the HepSE_cirrhosis came out at 0. Further, in the series with Hepatotoxicity [4], the HepSE_liver fatty came out at 0. In addition, in the series on Hepatotoxicity [5], the “HepSE_elevated liver function tests” value is given as 0. In addition, the “HepSE_liver function tests abnormal” value with Hepatotoxicity [6] is given as 0. Besides, the HepSE_hepatic failure in the series on Hepatotoxicity [7] is recorded as 0. Further, in the series on Hepatotoxicity [8], the HepSE_jaundice was 1. In addition, in the series with Hepatotoxicity [9], the “HepSE_Combined Scores” value is 1. The compound also yielded a HepSE_bilirubinemia with Hepatotoxicity [10] of 0. Besides, the HepSE_hepatitis with Hepatotoxicity [11] came to 0. The compound further showed a HepSE_cholecystitis in the series with Hepatotoxicity [12] of 0. In the series with Hepatotoxicity [13], this compound registered a HepSE_hepatomegaly of 0. For the same compound, in the series with Hepatotoxicity [14], the HepSE_liver disease was 0.

As to `Cc1oncc1C(=O)Nc1ccc(C(F)(F)F)cc1` [LEFLUNOMIDE], in the series with Hepatotoxicity [1], the HepSE_hepatic necrosis amounted to 1. For the same compound, the HepSE_cholelithiasis in the series on Hepatotoxicity [2] worked out at 1. The HepSE_cirrhosis in the series on Hepatotoxicity [3] is on record as 0. The compound also came in with a HepSE_liver fatty in the series with Hepatotoxicity [4] of 0. Further, the “HepSE_elevated liver function tests” value in the series with Hepatotoxicity [5] came to 0. Besides, in the series with Hepatotoxicity [6], the “HepSE_liver function tests abnormal” value is on record as 1. Besides, in the series on Hepatotoxicity [7], the HepSE_hepatic failure is recorded as 1. In the series with Hepatotoxicity [8], this compound gave a HepSE_jaundice of 1. In the series on Hepatotoxicity [9], the “HepSE_Combined Scores” value was 7. This compound also came in with a HepSE_bilirubinemia in the series on Hepatotoxicity [10] of 0. In the series on Hepatotoxicity [11], this compound returned a HepSE_hepatitis of 1. The HepSE_cholecystitis in the series on Hepatotoxicity [12] was found to be 0. In addition, the HepSE_hepatomegaly with Hepatotoxicity [13] is given as 0. Besides, the HepSE_liver disease in the series with Hepatotoxicity [14] amounted to 1.

In the series on Hepatotoxicity [1], `O=C1CN=C(c2ccccc2Cl)c2cc([N+](=O)[O-])ccc2N1` [CLONAZEPAM] displayed a HepSE_hepatic necrosis of 0. The HepSE_cholelithiasis in the series on Hepatotoxicity [2] is recorded as 0. In the series with Hepatotoxicity [3], this compound had a HepSE_cirrhosis of 0. In the series with Hepatotoxicity [4], this compound registered a HepSE_liver fatty of 0. Further, the “HepSE_elevated liver function tests” value in the series on Hepatotoxicity [5] is listed as 0. The “HepSE_liver function tests abnormal” value with Hepatotoxicity [6] came out at 0. For the same compound, the HepSE_hepatic failure with Hepatotoxicity [7] turned out to be 0. This compound yielded a HepSE_jaundice in the series with Hepatotoxicity [8] of 0. Also, in the series with Hepatotoxicity [9], the “HepSE_Combined Scores” value turned out to be 1. In the series with Hepatotoxicity [10], the HepSE_bilirubinemia came to 0. Moreover, the HepSE_hepatitis in the series on Hepatotoxicity [11] is 0. For the same compound, in the series with Hepatotoxicity [12], the HepSE_cholecystitis came to 0. In the series on Hepatotoxicity [13], the HepSE_hepatomegaly was 1. The same compound gave a HepSE_liver disease with Hepatotoxicity [14] of 0.
